Patent US20210070723A1, “CRYSTAL FORM OF SESQUITERPENE DERIVATIVE, PREPARATION METHOD THEREFOR AND USE THEREOF” (Nankai University, priority 2017, published 2021)
Like-named read-outs stand apart in the source and are kept apart here.

Assays:
[1] = Hygroscopicity: open weighing bottles in a constant temperature and humidity incubator, moisture absorption rate; assay type: physicochemical; conditions: for hygroscopicity (in words): compared with the amorphous compound of structural formula (I); for Moisture absorption rates after 1 month / Moisture absorption rates after 2 months / Moisture absorption rates after 2 weeks: 25° C., 75% humidity
Protocol: The crystal form A products prepared in example 1, example 2 and example 3 were taken and placed in weighing bottles for precision weighing. The caps of the bottles were opened, the bottles were put on an upper part of a drier and placed in a constant temperature and humidity incubator with 25° C. and 75% humidity, three parts were subjected to parallel operation, and then taken and weighed in two weeks, one month and two months respectively, and the compound amorphous powder of structural formula (I) was used as comparative example 1. Moisture absorption rate=(weight after moisture absorption - weight before moisture absorption)/weight before moisture absorption×100%.

[2] = Absorption experiment (pharmacokinetics and bioavailability) in rats; assay type: in vivo; conditions: Sprague Dawley, plasma, rat; for bioavailability: oral, 150 mpk
Protocol: Trial rats were Sprague Dawley rats, 7 rats in total, 1 rat was used as blank control, and blank plasma was taken to be used. 3 rats were administrated via tail intravenous injection (30 mpk), and 3 rats were orally and intragastrically administrated (150 mpk). According to the set time schedule, blood was collected from orbital vein to put in a blood collection vessel containing heparin sodium, centrifuged for 10min at 4° C. and 3500rpm, the supernatant of plasma was taken and put into EP tube, and the content of the compound of structural formula (I) in blood was detected. Bioavailability was calculated according to the following formula: bioavailability F %=(AUCpo/AUCIV)×(dose IV/dose po)×100%; Time schedule was set, as shown in Table 2. AUCpo is an area under the drug concentration-time curve under administrating oral drug, AUCIV is an area under the drug concentration-time curve under intravenous injecting drug, dose IV is the dose of the injected drug, the dose po is the dose of the oral drug, Tmax (h) is the time to reach the blood peak, T1/2 (h) is the half-life of blood concentration, and Cmax (ng/mL) is the drug peak concentration of the drug-time curve.

IPF model (bleomycin) = assay: Animal drug effect in the bleomycin-induced IPF model, intragastric administration; assay type: in vivo, C57BL/6 mice; conditions: for overall effect on idiopathic pulmonary fibrosis: bleomycin mouse model, vs Pirfenidone and Nintedanib
Protocol: Trial mice were C57BL/6 mice, 35 mice in total, 7 mice in each group, including a saline group, a bleomycin group, a Nintedanib group (100 mpk), a Pirfenidone group (200 mpk) and a group (100 mpk) administrating the crystal form A of the compound of structural formula (I). On day 0, bleomycin (2U/kg) was injected using a trachea to establish an IPF model, 0-7 days were inflammation periods of mice, and 7-14 days were fibrosis lasting progressive periods of mice. Administration was conducted on the day 7, materials were taken on the day 14, the lung functions of mice were measured after mice were narcotized, then the left lungs were taken to make pathological sections, and the right lungs were used to measure hydroxyproline.

[3] = 30 mg/kg, intravenous injection (30 mpk)
[4] = 150 mg/kg, oral administration (150 mpk)

SMILES: CN(C)C[C@@H]1C(=O)O[C@@H]2C[C@@]3(C)CC[C@@H](O)[C@]4(CO4)[C@@H]3C[C@H]12.O=C(O)CCC(=O)O
- hygroscopicity (in words) [1]: obviously reduced
- hygroscopicity (in words) ([1]; listed as crystal form A of the compound (I)): basically non-hygroscopic
- AUC [2, 3]: 40.6 µg·h/mL
- Cmax [2, 3]: 21300 ng/mL
- Tmax [2, 3]: 0.11 h
- half-life [2, 3]: 1.35 h
- AUC [2, 4]: 174 µg·h/mL
- Cmax [2, 4]: 56300 ng/mL
- Tmax [2, 4]: 0.67 h
- half-life [2, 4]: 1.91 h
- bioavailability ([2]; po 150 mpk vs iv 30 mpk, read-out: bioavailability): 85.8%
- pathological sections (area of pulmonary fibrosis focus, alveolar structure) (IPF model (bleomycin); 100 mpk, administration from day 7, left lung taken on day 14): can obviously reduce the area of pulmonary fibrosis focus and normalize the alveolar structure
- forced vital capacity (FVC) (IPF model (bleomycin); 100 mpk, day 14): can significantly improve the FVC of mice
- pulmonary fibrosis area (fibrotic percentage) (IPF model (bleomycin); 100 mpk, day 14, vs Nintedanib (100 mpk) and Pirfenidone (200 mpk)): superior to the positive drugs
- expression of hydroxyproline (content of collagen in the lungs) (IPF model (bleomycin); 100 mpk, right lung, day 14): can significantly reduce the content of collagen in the lungs
- overall effect on idiopathic pulmonary fibrosis (IPF model (bleomycin)): can significantly alleviate idiopathic pulmonary fibrosis

SMILES: CN(C)C[C@@H]1C(=O)O[C@@H]2C[C@@]3(C)CC[C@@H](O)[C@]4(CO4)[C@@H]3C[C@H]12.O=C(O)CCC(=O)O [Example 1]
- Moisture absorption rates after 1 month [1]: 2.7%
- Moisture absorption rates after 2 months [1]: 3.2%
- Moisture absorption rates after 2 weeks [1]: 1.4%
- bioavailability ([2]; crystal form A prepared by the methods in example 1 and example 3, read-out: bioavailabilities): > 85.5%
- overall effect on idiopathic pulmonary fibrosis (IPF model (bleomycin)): can significantly alleviate idiopathic pulmonary fibrosis

SMILES: CN(C)C[C@@H]1C(=O)O[C@@H]2C[C@@]3(C)CC[C@@H](O)[C@]4(CO4)[C@@H]3C[C@H]12.O=C(O)CCC(=O)O [Example 2]
- Moisture absorption rates after 1 month [1]: 3.8%
- Moisture absorption rates after 2 months [1]: 3.1%
- Moisture absorption rates after 2 weeks [1]: 1.9%

SMILES: CN(C)C[C@@H]1C(=O)O[C@@H]2C[C@@]3(C)CC[C@@H](O)[C@]4(CO4)[C@@H]3C[C@H]12.O=C(O)CCC(=O)O [Example 3]
- Moisture absorption rates after 1 month [1]: 2.2%
- Moisture absorption rates after 2 months [1]: 2.8%
- Moisture absorption rates after 2 weeks [1]: 1.6%
- overall effect on idiopathic pulmonary fibrosis (IPF model (bleomycin)): can significantly alleviate idiopathic pulmonary fibrosis

SMILES: CN(C)C[C@@H]1C(=O)O[C@@H]2C[C@@]3(C)CC[C@@H](O)[C@]4(CO4)[C@@H]3C[C@H]12.O=C(O)CCC(=O)O [compound 1]
- Moisture absorption rates after 1 month [1]: 12.7%
- Moisture absorption rates after 2 months [1]: 22.6%
- Moisture absorption rates after 2 weeks [1]: 8.1%
